Experimental data published in patent US7279550B2, “Irreversible cysteine protease inhibitors of legumain” (Probiodrug AG, priority 2001, dated 2007).

Legend:
[1] = molecular target: T1, legumain (Homo sapiens, UniProt Q99538); experiment: Fluorogenic continuous rate assay of legumain activity, substrate Z-Ala-Ala-Asn-AMC (kobs/[I]); assay type: biochemical; details: for kobs/[l] (second-order rate constant for the inactivation of legumain): substrate Z-Ala-Ala-Asn-AMC, 37° C. or 30° C., sodium citrate buffer, 1 mM dithiothreitol, 1 mM EDTA, approximate second-order inactivation constants
T1 sequence (Q99538 18-323): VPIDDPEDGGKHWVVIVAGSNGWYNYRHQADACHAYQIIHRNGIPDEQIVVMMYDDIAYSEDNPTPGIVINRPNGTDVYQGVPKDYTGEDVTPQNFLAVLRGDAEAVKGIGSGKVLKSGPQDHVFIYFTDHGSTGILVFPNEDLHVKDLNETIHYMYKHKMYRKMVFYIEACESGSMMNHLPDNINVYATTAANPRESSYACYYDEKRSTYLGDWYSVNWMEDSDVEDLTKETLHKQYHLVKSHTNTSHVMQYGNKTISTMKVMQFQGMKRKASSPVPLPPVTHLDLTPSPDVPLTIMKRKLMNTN
Procedure: The legumain activity was determined in a fluorogenic continuos rate assay using the substrate Z-Ala-Ala-Asn-AMC on a Kontron spectrofluorometer SFM25 (exitation 380; emission 460) equipped with a four cell changer and controlled by an IBM-compatible personal computer. The obtained data were analyzed with the software FLUCOL^(38). The assay were done at 37° C. or 30° C., using a sodium citrate buffer (39.5 mM citric acid/121 mM Na2HPO4) containing 1 mM dithiothreitol and 1 mM EDTA. Additionally, 0.1% (w/v) Chaps or 0.015% (w/v) Brij 35 was added.
The inhibition progress curves were analyzed using non-linear curve fitting software Prism Graph Pad to compute the kobs values. Approximate second-order inactivation constants (kobs/[I]) were calculated for all compounds.

[2] = molecular target: T1, legumain; experiment: Determination of Ki-values, legumain, substrate Z-Ala-Ala-Asn-AMC; assay type: biochemical; details: HEPES pH 7.6, 30° C.; substrate 0.05, 0.1, 0.2 and 0.4 mM
Procedure: 100 μl inhibitor stock solution were mixed with 100 μl buffer (HEPES pH 7.6) and 50 μl substrate Z-Ala-Ala-Asn-AMC and preincubated at 30° C. Reaction was started by addition of 20 μl enzyme solution. Formation of the product AMC was measured on a Kontron spectrofluorometer SFM25 (exitation 380; emission 460) and slopes were calculated. Legumain activity was measured at final substrate concentrations of 0.05, 0.1, 0.2, and 0.4 mM and further 7 inhibitor concentrations covering the IC50 concentration. Calculations were performed using the GraFit 4.0.13 (Erithacus) Software.

Row | kobs/[l] (second-order rate constant for the inactivation of legumain) [1] [M⁻¹ s⁻¹] | Compound | further results
1 | 543 | COC(=O)/C=C/[C@H](CC(N)=O)NC(=O)[C@H](C)NC(=O)[C@H](C)NC(=O)OCc1ccccc1 [Compound 5, Methyl (S)-(E)-4-[Cbz-L-Ala-L-Ala]amino-6-amino-6-oxo-2-hexenoate] | 
2 | 456 | CCOC(=O)/C=C/[C@H](CC(N)=O)NC(=O)[C@H](C)NC(=O)[C@H](C)NC(=O)OCc1ccccc1 [Compound 6, Ethyl (S)-(E)-4-[Cbz-L-Ala-L-Ala]amino-6-amino-6-oxo-2-hexenoate] | 
3 | 776 | C=CCOC(=O)/C=C/[C@H](CC(N)=O)NC(=O)[C@H](C)NC(=O)[C@H](C)NC(=O)OCc1ccccc1 [Compound 7, Allyl (S)-(E)-4-[Cbz-L-Ala-L-Ala]amino-6-amino-6-oxo-2-hexenoate] | 
4 | 4 | CC(NC(=O)OCc1ccccc1)C(=O)NC(C)C(=O)N[C@H](/C=C/C(=O)O)CC(N)=O (stereo partly drawn) [Compound 8, (S)-(E)-4-[Cbz-L-Ala-L-Ala]amino-6-amino-6-oxo-2-hexenoic acid] | 
5 | 2 | COC(=O)/C(C)=C/[C@H](CC(N)=O)NC(=O)C(C)NC(=O)C(C)NC(=O)OCc1ccccc1 (stereo partly drawn) [Compound 9, Methyl (S)-(E)-4-[Cbz-L-Ala-L-Ala]amino-6-amino-2-methyl-6-oxo-2-hexenoate] | 
6 | 2 | CCOC(=O)/C(C)=C/[C@H](CC(N)=O)NC(=O)C(C)NC(=O)C(C)NC(=O)OCc1ccccc1 (stereo partly drawn) [Compound 10, Ethyl (S)-(E)-4-[Cbz-L-Ala-L-Ala]amino-6-amino-2-methyl-6-oxo-2-hexenoate] | 
7 | <1 | C/C(=C\[C@H](CC(N)=O)NC(=O)[C@H](C)NC(=O)[C@H](C)NC(=O)OCc1ccccc1)C(=O)O [Compound 11, (S)-(E)-4-[Cbz-L-Ala-L-Ala]amino-6-amino-2-methyl-6-oxo-2-hexenoic acid] | 
8 | 139088 | CC(NC(=O)OCc1ccccc1)C(=O)NC(C)C(=O)NN(CC(N)=O)C(=O)CCl [Compound 18, 2-[2-(Cbz-L-Ala-L-Ala)-1-(chloroacetyl)hydrazino]acetamide] | second-order rate constant for the inactivation of legumain, fold higher than that of the Michael acceptor inhibitors ([1]; compared with the Michael acceptor inhibitors): approximately 200 fold
9 |  | C[C@H](NC(=O)OCc1ccccc1)C(=O)N[C@@H](C)C(=O)N[C@@H](CC(N)=O)C(=O)NOC(=O)c1ccccc1 [Compound 20, [Cbz-L-Ala-L-Ala-L-Asn]-O-benzoylhydroxamate] | Ki [2]: 3.1 µM
10 | 84000 | C[C@H](NC(=O)OCc1ccccc1)C(=O)N[C@@H](C)C(=O)NN(CC(N)=O)C(=O)CBr [Compound 22, 2-[2-(Cbz-L-Ala-L-Ala)-1-(bromoacetyl)hydrazino]acetamide] | inhibition of legumain (in words) [1]: potent inhibitor
11 | <1 | Diethyl [(S)-(E)-3-[Cbz-L-Ala-L-Ala]amino-5-amino-5-oxo-1-petenylphosphate [Compound 13] | 
12 | 30 | Methyl [(S)-(E)-3-[Cbz-L-Ala-L-Ala]amino-5-amino-5-oxo-1-petene]-sulfonate [Compound 12] | 

Row | Compound | kobs/[l] (second-order rate constant for the inactivation of legumain) [1] [M⁻¹ s⁻¹] | further results
13 | C[C@H](NC(=O)OCc1ccccc1)C(=O)N[C@@H](C)C(=O)NN(CC(N)=O)C(=O)COC(=O)c1ccccc1 [Compound 24, 2-[2-(Cbz-L-Ala-L-Ala)-1-(benzoyloxyacetyl)hydrazino]acetamide] | 13 | inhibition of legumain (in words) [1]: only moderate inhibition
